Patent US20150344407A1, “FENDILINE DERIVATIVES AND METHODS OF USE THEREOF” (THE BOARD OF REGENTS OF THE UNIVERSITY OF TEXAS SYSTEM, priority 2012, published 2015)
Structures can show the parent of a compound that is named as a salt.

Columns and labels:
Hec50 cells = experiment: Proliferation assay, endometrial cancer cell line Hec50; type: cell-based; conditions: 72 h, CyQUANT; Hec50 expresses oncogenic mutant K-Ras
From the text: (§1) FIG. 4A-4E—Concentration-response curves of 42, 68, 70, 72 and 73 on proliferation of five endometrial cancer cell lines. KLE and ESS-1 express wild type K-Ras and Hec-1A, Hec-1B and Hec50 express oncogenic mutant K-Ras. […] EC50 values for their inhibitory effect are tabulated. ND means that the EC50 value could not be determined within the dose range tested. See also Table 4.
(§2) Cell lines: Madine Darby Canine Kidney epithelial cells (MDCK) stably co-expressing mGFP-tagged full length oncogenic mutant K-Ras (GFP-K-RasG12V) and mCherry-tagged to the amino acids 179-189 of H-RasC181S, C184S (mCherry-CAAX, localizes primarily to endomembranes) were grown in DMEM-high glucose/sodium pyruvate/10% FBS. The medium was supplemented with 1× Penicillin/Streptomycin for fluorescence microscopy assays, to avoid any microbial contamination from the test compounds added. KLE and Hec50 cells were maintained in DMEM-F-12 medium supplemented with 10% FBS. Hec-1A and Hec-1B cells were grown in McCoy's 5a medium supplemented with 10% FBS. ESS-1 cells were grown in RPMI 1640 medium supplemented with 20% FBS. MPanc96 cells were grown in DMEM supplemented with 10% FBS, MiaPaCa-2 cells in DMEM supplemented with 10% FBS and 2.5% horse serum and all other cell lines were grown in RPMI 1640 supplemented with 10% FBS. All cancer cell media were supplemented with 1× Penicillin/Streptomycin. All cell lines were grown at 37° C. with 5% CO2.
(§3) Proliferation Assay: Cells were seeded in 96-well plates. After 24 h, fresh growth medium supplemented with 0.1% vehicle (DMSO), or various concentrations of drugs was added and cells were grown for 72 h. Cell numbers were quantified using the CyQUANT® Cell Proliferation Assay Kit (Life Technologies), according to the manufacturer's protocol. Fluorescence measurement was used as a measure of live cell number.
(§4) Based upon the concentration-response curves of five different compounds (42, 68, 70, 72, and 73) were tested for their effects on cell proliferation of five different endometrial cell lines. These experiments were carried out as described in the Methods and Materials section.

MiaPaCa-2 cells = experiment: Proliferation assay, pancreatic cancer cell line MiaPaCa-2; type: cell-based; conditions: Homo sapiens, MIA PaCa-2; 72 h, CyQUANT; oncogenic mutant K-Ras
From the text: (§5) FIG. 5A-5E—Concentration-response curves of 42, 68, 70, 72 and 73 on proliferation of five pancreatic cancer cell lines. BxPC-3 expresses wild type K-Ras, whereas the others express oncogenic mutant K-Ras. […] EC50 values for their inhibitory effect are tabulated. ND means that the EC50 value could not be determined within the dose range tested. See also Table 5.
as §2, §3
(§6) Based upon the concentration-response curves of five different compounds (42, 68, 70, 72, and 73) were tested for their effects on cell proliferation of five different pancreatic cell lines. These experiments were carried out as described in the Methods and Materials section.

[1] = system: phosphorylated ERK, a protein activated downstream of K-ras; experiment: Western immunoblotting for pERK (inhibition of ERK activation); type: cell-based, canine; conditions: Canis lupus familiaris; 4 μM compound, 48 hours, MDCK cells stably expressing GFP-tagged K-rasG12V; whole cell lysates; normalized to vehicle-treated control; read-out: % Inhibition of ERK activation when treated with 4 μM compound
Protocol: (§7) To determine the effect of compounds on localization of K-ras, Mardine Darby canine kidney epithelial (MDCK) cells stably expressing GFP-tagged K-rasG12V (oncogenic K-ras) grown on cover slips were treated with vehicle or compound (4 μM) for 48 hours and fixed with 4% paraformaldehyde. The coverslips were mounted in Mowiol and imaged by confocal microscopy (Nikon A1) using a 60× objective. Images were analyzed by ImageJ software. Densitometric analysis was performed on images to determine the degree of K-ras mislocalization. To determine the effect of compounds on K-ras function, MDCK cells stably expressing GFP-tagged K-rasG12V were treated with vehicle or compound (4 μM) for 48 hours. Following treatment, whole cell lysates were prepared and subjected SDS-PAGE and western blotting to quantify the level of phosphorylated ERK, a protein activated downstream of K-ras. All calculations were normalized to vehicle-treated control.
Western Immunoblotting for pERK: 2×10^5 cells/well were seeded in 6-well cell culture plates. 24 h after seeding, fresh medium containing 1% vehicle (DMSO) or 4 μM test compound (1:100 dilution, such that DMSO was 1%) was added and incubated for 48 h. Cells were lysed in Buffer B (50 mM Tris [pH 7.5], 75 mM NaCl, 25 mM NaF, 5 mM MgCl2, 5 mM EGTA, 1 mM dithiothreitol, 100 μM NaVO4, 1% Nonidet P-40 plus protease inhibitors). SDS-PAGE and immunoblotting with the anti-phospho-p44/42 mitogen-activated protein kinase (MAPK) (ERK1/2) antibody was performed using 20 μg of each whole cell lysate. Signal was detected by enhanced chemiluminescence (SuperSignal; Pierce, Thermo Fisher Scientific, Rockford, Ill.) and imaged by FluorChemQ (Alpha Inotech, San Leandro, Calif.). Quantification of intensities was performed using FluorChemQ software. Results were normalized to vehicle-treated control.

MPanc-96 cells = experiment: Proliferation assay, pancreatic cancer cell line MPanc-96; type: cell-based; conditions: MPANC96; 72 h, CyQUANT; oncogenic mutant K-Ras
From the text: as §5, §2, §3, §6

[2] = target: T1, GFP-tagged K-rasG12V (oncogenic K-ras) in MDCK cells (Homo sapiens, UniProt P01116, G12V); experiment: K-ras mislocalization, confocal fluorescence microscopy with densitometric analysis; type: cell-based, canine; conditions: 4 μM compound, 48 hours, MDCK cells stably expressing GFP-tagged K-rasG12V; normalized to vehicle-treated control; read-out: % Mislocalization of K-ras when treated with 4 μM compound
T1 construct: mGFP-tagged full length oncogenic mutant K-Ras (GFP-K-RasG12V); expressed in transfected cells
T1 sequence (P01116 1-188 isoform P01116-2 G12V): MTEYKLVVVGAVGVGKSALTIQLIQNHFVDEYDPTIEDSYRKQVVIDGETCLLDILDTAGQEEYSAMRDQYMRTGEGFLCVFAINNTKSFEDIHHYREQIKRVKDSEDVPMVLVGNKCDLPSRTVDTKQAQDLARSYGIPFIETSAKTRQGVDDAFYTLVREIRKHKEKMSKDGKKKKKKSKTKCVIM
Protocol: FIGS. 1 & 2—Representative images showing degree of K-ras mislocalization with compound treatment (images corresponds with column 3 of Table 2). MDCK cells stably expressing GFP-tagged K-rasG12V were treated with vehicle or compound (4 μM) for 48 hours and fixed with 4% paraformaldehyde. The coverslips were mounted in Mowiol and imaged by confocal microscopy (Nikon A1) using a 60× objective. The number above each image corresponds the fendiline derivative code.
as §7
Fluorescence microscopy: 2×10^5 or 1×10^5 cells/well were seeded in 6- or 12-well cell culture plates, respectively, containing glass coverslips. 24 h after seeding, fresh medium containing 1% vehicle (Dimethyl sulfoxide, DMSO) or 4 μM test compound (1:100 dilution, such that DMSO was 1%) was added and incubated for 48 h, following which the cells were fixed with 4% paraformaldehyde and coverslips were mounted in Mowiol. Cells were imaged in the GFP wavelength (488 nm) using a confocal microscope (Nikon A1) with 60× objective. Images were saved in tagged imaged file format (tiff) and analyzed by ImageJ software. The densitometric ratio of plasma membrane localized K-Ras versus total K-Ras was calculated and normalized to vehicle-treated control.

Hec-1B cells = experiment: Proliferation assay, endometrial cancer cell line Hec-1B; type: cell-based; conditions: Homo sapiens; 72 h, CyQUANT; Hec-1B expresses oncogenic mutant K-Ras; ND = EC50 could not be determined within the dose range tested
From the text: as §1, §2, §3
Based upon the concentration-response curves of five different compounds (42, 68, 70, 72, and 73) were tested for their effects on cell proliferation of five different endometrial cell lines. […]

MOH cells = experiment: Proliferation assay, pancreatic cancer cell line MOH; type: cell-based; conditions: 72 h, CyQUANT, oncogenic mutant K-Ras
From the text: as §5, §2, §3, §6

Hec-1A cells = experiment: Proliferation assay, endometrial cancer cell line Hec-1A; type: cell-based; conditions: Homo sapiens; 72 h, CyQUANT; Hec-1A expresses oncogenic mutant K-Ras
From the text: as §1, §2, §3, §4

HPAC cells = experiment: Proliferation assay, pancreatic cancer cell line HPAC; type: cell-based; conditions: Homo sapiens, 72 h, CyQUANT, oncogenic mutant K-Ras
From the text: as §5, §2, §3, §6

| SMILES | inhibition at 4 µM [1] [%] | inhibition at 4 µM [2] [%] | other results |
| --- | --- | --- | --- |
| COC(=O)[C@H](NCC=C(c1ccccc1)c1ccccc1)c1ccccc1 [Compound 42, (R)-methyl 2-((3,3-diphenylallyl)amino)-2-phenylacetate] | 44 | 50 | EC50 (Hec50 cells): 423 nM; EC50 (MiaPaCa-2 cells): 2410 nM; EC50 (MPanc-96 cells): 1120 nM; EC50 (Hec-1B cells): 524 nM; EC50 (MOH cells): 1040 nM; EC50 (Hec-1A cells): 7.39 nM; EC50 (HPAC cells): 944 nM |
| COc1ccc([C@@H](C)N(CC=C(c2ccccc2)c2ccccc2)CC=C(c2ccccc2)c2ccccc2)cc1 [Compound 68, (R)-N-(3,3-diphenylallyl)-N-(1-(4-methoxyphenyl)ethyl)-3,3-diphenylprop-2-en-1-amine] |  |  | EC50 (Hec50 cells): 1.58 nM; EC50 (MiaPaCa-2 cells): 1150 nM; EC50 (MPanc-96 cells): 912 nM; EC50 (MOH cells): 931 nM; EC50 (Hec-1A cells): 211 nM; EC50 (HPAC cells): 105 nM |
| C(CN(CC=C(c1ccccc1)c1ccccc1)[C@@H]1CCc2ccccc21)=C(c1ccccc1)c1ccccc1 [Compound 73, (R)—N,N-bis(3,3-diphenylallyl)-2,3-dihydro-1H-inden-1-amine] |  |  | EC50 (Hec50 cells): 412 nM; EC50 (MiaPaCa-2 cells): 894 nM; EC50 (MPanc-96 cells): 239 nM; EC50 (Hec-1B cells): 330 nM; EC50 (MOH cells): 616 nM; EC50 (Hec-1A cells): 19.6 nM; EC50 (HPAC cells): 346 nM |
| C[C@@H](NCC=C(c1ccccc1)c1ccccc1)c1ccccc1 [Compound 16, (R)-3,3-diphenyl-N-(1-phenylethyl)prop-2-en-1-amine] | 58.4 | 39.3 |  |
| C[C@@H](NC/C=C/c1cccc2ccccc12)c1ccccc1 [Compound 32, (R,E)-3-(naphthalen-1-yl)-N-(1-phenylethyl)prop-2-en-1-amine] | 31.7 | 12.5 |  |
| CC(NCCCc1ccccc1)c1ccccc1 (centres unmarked) [Compound 11, 3-phenyl-N-(1-phenylethyl)propan-1-amine hydrochloride] | 42.9 | 32.4 |  |
| CC(C)=CCC/C(C)=C/CC/C(C)=C/CN[C@H](C)c1ccccc1 [Compound 28, (2E,6E)-3,7,11-trimethyl-N—((R)-1-phenylethyl)dodeca-2,6,10-trien-1-amine] | 38 | 34.9 |  |
| C[C@@H](NC/C=C/c1ccccc1)c1cccc2ccccc12 [Compound 34, (R,E)-N-(1-(naphthalen-1-yl)ethyl)-3-phenylprop-2-en-1-amine] | 18.9 | 7.94 |  |
| C[C@H](c1cccc(Cl)c1)N(CC=C(c1ccccc1)c1ccccc1)CC=C(c1ccccc1)c1ccccc1 [Compound 70, (R)—N-(1-(3-chlorophenyl)ethyl)-N-(3,3-diphenylallyl)-3,3-diphenylprop-2-en-1-amine] |  |  | EC50 (Hec50 cells): 3310 nM; EC50 (MiaPaCa-2 cells): 1500 nM; EC50 (MPanc-96 cells): 814 nM; EC50 (Hec-1B cells): 10700 nM; EC50 (MOH cells): 663 nM; EC50 (Hec-1A cells): 38.2 nM; EC50 (HPAC cells): 220 nM |
| C[C@@H](NC/C=C/c1ccc(-c2ccccc2)cc1)c1ccccc1 [Compound 31, (R,E)-3-([1,1′-biphenyl]-4-yl)-N-(1-phenylethyl)prop-2-en-1-amine] | 35.6 | 6.36 |  |
| C[C@@H](NC/C=C(/c1ccccc1)c1ccc(N)cc1)c1ccccc1 [Compound 50, (R,Z)-4-(1-phenyl-3-((1-phenylethyl)amino)prop-1-en-1-yl)aniline] | 22.6 | 6.61 |  |
| C[C@H](NC/C=C/c1ccccc1)c1ccccc1 [Compound 19, (S,E)-3-phenyl-N-(1-phenylethyl)prop-2-en-1-amine] | 11.3 | 16.5 |  |
| CC(C)=CCC/C(C)=C/CO[C@H](C)c1ccccc1 [Compound 20, (R,E)-(1-((3,7-dimethylocta-2,6-dien-1-yl)oxy)ethyl)benzene] | -5.12 | 14.6 |  |
| C[C@@H](OCC=C(c1ccccc1)c1ccccc1)c1ccccc1 [Compound 22, (R)-(3-(1-phenylethoxy)prop-1-ene-1,1-diyl)dibenzene] | -14.4 | 8.14 |  |
| C[C@@H](NC/C=C/c1ccc2ccccc2c1)c1ccccc1 [Compound 33, (R,E)-3-(naphthalen-2-yl)-N-(1-phenylethyl)prop-2-en-1-amine] | 15.7 | 1.53 |  |
| CC(CNCC=C(c1ccccc1)c1ccccc1)c1ccccc1 (centres unmarked) [Compound 30, 3,3-diphenyl-N-(2-phenylpropyl)prop-2-en-1-amine] | 49.1 | 26.5 |  |
| C[C@@H](NC/C=C(\c1ccccc1)c1ccc([N+](=O)[O-])cc1)c1ccccc1 [Compound 55, (R,E)-3-(4-nitrophenyl)-3-phenyl-N-(1-phenylethyl)prop-2-en-1-amine] | -36.6 | 12.3 |  |
| CC(C)=CCC/C(C)=C/CN[C@H](C)c1ccccc1 [Compound 21, (R,E)-3,7-dimethyl-N-(1-phenylethyl)octa-2,6-dien-1-amine] | 3.75 | 8.29 |  |
| COC(=O)[C@H](NC/C=C/c1ccccc1)c1ccccc1 [Compound 40, (R)-methyl 2-(cinnamylamino)-2-phenylacetate] | 11 | 9.46 |  |
